Results reported in patent publication US9738634B2, “Heterocyclic amide compound and herbicide” (SYNGENTA PARTICIPATIONS AG, priority 2013, dated 2017).

Columns and labels:
Type in all cases: in vivo
Conditions in all cases: treatment dosage 320 g/ha
barnyard grass [1] = assay: Test Example 1: weedkilling efficacy, preemergent weed treatment in the submerged state; A: barnyard grass
How it was run: (§1)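 Visual scores against set criteria were taken 3 weeks after treatment. Compounds, as diluted emulsions at specified g/ha, went onto the water surface of 4 cm-flooded alluvial soil pots on the day weeds were sown and 2.5-leaf rice was transplanted; greenhouse held 25–30 °C.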

bulrush [2] = assay: Test Example 1: weedkilling efficacy, preemergent weed treatment in the submerged state; B: bulrush
How it was run: as §1

oval-leafed pondweed [3] = assay: Test Example 1: weedkilling efficacy, preemergent weed treatment in the submerged state; C: oval-leafed pondweed
How it was run: as §1

transplanted rice = assay: Test Example 1: preemergent weed treatment in the submerged state, effect on crop; a: transplanted rice
How it was run: as §1

barnyard grass [4] = assay: Test Example 2: weedkilling efficacy, growth period weed treatment in the submerged state; A: barnyard grass
How it was run: (§2)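 Barnyard grass, bulrush and oval-leafed pondweed sown in alluvial soil under 4 cm flooding, greenhouse 25 to 30° C. At 1-2 leaf stage, water-diluted emulsion applied to the water surface at stated g/ha dosages; effects scored 3 weeks later.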

bulrush [5] = assay: Test Example 2: weedkilling efficacy, growth period weed treatment in the submerged state; B: bulrush
How it was run: as §2

oval-leafed pondweed [6] = assay: Test Example 2: weedkilling efficacy, growth period weed treatment in the submerged state; C: oval-leafed pondweed
How it was run: as §2

crabgrass [7] = assay: Test Example 3: weedkilling efficacy through soil treatment; D: crabgrass
How it was run: (§3)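 Crop and weed responses were judged three weeks after a uniform surface spray of the water-diluted emulsion at the given g/ha rate. Seeds sat beneath about 1.5 cm of sterilized diluvial soil, and boxes stood in a greenhouse at 25 to 30° C.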

green foxtail [8] = assay: Test Example 3: weedkilling efficacy through soil treatment; E: green foxtail
How it was run: as §3

barnyard grass [9] = assay: Test Example 3: weedkilling efficacy through soil treatment; F: barnyard grass
How it was run: as §3

wild oat [10] = assay: Test Example 3: weedkilling efficacy through soil treatment; G: wild oat
How it was run: as §3

black-grass [11] = assay: Test Example 3: weedkilling efficacy through soil treatment; H: black-grass
How it was run: as §3

Italian ryegrass [12] = assay: Test Example 3: weedkilling efficacy through soil treatment; I: Italian ryegrass
How it was run: as §3

common wind-grass [13] = assay: Test Example 3: weedkilling efficacy through soil treatment; J: common wind-grass
How it was run: as §3

Indian mallow [14] = assay: Test Example 3: weedkilling efficacy through soil treatment; K: Indian mallow
How it was run: as §3

redroot pigweed [15] = assay: Test Example 3: weedkilling efficacy through soil treatment; L: redroot pigweed
How it was run: as §3

fig-leafed goosefoot [16] = assay: Test Example 3: weedkilling efficacy through soil treatment; M: fig-leafed goosefoot
How it was run: as §3

chickweed [17] = assay: Test Example 3: weedkilling efficacy through soil treatment; N: chickweed
How it was run: as §3

catchweed [18] = assay: Test Example 3: weedkilling efficacy through soil treatment; O: catchweed
How it was run: as §3

birds-eye speedwell = assay: Test Example 3: weedkilling efficacy through soil treatment; p: birds-eye speedwell
How it was run: as §3

directly sown rice [19] = assay: Test Example 3: soil treatment, effect on crop; b: directly sown rice
How it was run: as §3

corn [20] = assay: Test Example 3: soil treatment, effect on crop; c: corn
How it was run: as §3

soybean [21] = assay: Test Example 3: soil treatment, effect on crop; d: soybean
How it was run: as §3

wheat [22] = assay: Test Example 3: soil treatment, effect on crop; e: wheat
How it was run: as §3

beet [23] = assay: Test Example 3: soil treatment, effect on crop; f: beet
How it was run: as §3

rapeseed [24] = assay: Test Example 3: soil treatment, effect on crop; g: rapeseed
How it was run: as §3

crabgrass [25] = assay: Test Example 4: weedkilling efficacy by foliar treatment; D: crabgrass
How it was run: (§4)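 Seeds are spot-sown into sterilized diluvial soil and covered with about 1.5 cm of soil. After 14 days' greenhouse growth at 25 to 30° C, plants are sprayed on stems and leaves with diluted emulsion at the stated g/ha rate, then scored at 3 weeks.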

green foxtail [26] = assay: Test Example 4: weedkilling efficacy by foliar treatment; E: green foxtail
How it was run: as §4

barnyard grass [27] = assay: Test Example 4: weedkilling efficacy by foliar treatment; F: barnyard grass
How it was run: as §4

wild oat [28] = assay: Test Example 4: weedkilling efficacy by foliar treatment; G: wild oat
How it was run: as §4

black-grass [29] = assay: Test Example 4: weedkilling efficacy by foliar treatment; H: black-grass
How it was run: as §4

Italian ryegrass [30] = assay: Test Example 4: weedkilling efficacy by foliar treatment; I: Italian ryegrass
How it was run: as §4

common wind-grass [31] = assay: Test Example 4: weedkilling efficacy by foliar treatment; J: common wind-grass
How it was run: as §4

Indian mallow [32] = assay: Test Example 4: weedkilling efficacy by foliar treatment; K: Indian mallow
How it was run: as §4

redroot pigweed [33] = assay: Test Example 4: weedkilling efficacy by foliar treatment; L: redroot pigweed
How it was run: as §4

fig-leafed goosefoot [34] = assay: Test Example 4: weedkilling efficacy by foliar treatment; M: fig-leafed goosefoot
How it was run: as §4

chickweed [35] = assay: Test Example 4: weedkilling efficacy by foliar treatment; N: chickweed
How it was run: as §4

catchweed [36] = assay: Test Example 4: weedkilling efficacy by foliar treatment; O: catchweed
How it was run: as §4

directly sown rice [37] = assay: Test Example 4: foliar treatment, effect on crop; b: directly sown rice
How it was run: as §4

corn [38] = assay: Test Example 4: foliar treatment, effect on crop; c: corn
How it was run: as §4

soybean [39] = assay: Test Example 4: foliar treatment, effect on crop; d: soybean
How it was run: as §4

wheat [40] = assay: Test Example 4: foliar treatment, effect on crop; e: wheat
How it was run: as §4

beet [41] = assay: Test Example 4: foliar treatment, effect on crop; f: beet
How it was run: as §4

rapeseed [42] = assay: Test Example 4: foliar treatment, effect on crop; g: rapeseed
How it was run: as §4

SMILES: CC1=C(c2ccccc2)C(=O)N(C(C)(C)C(=O)Nc2cc(C)cc(Cl)n2)CO1 [B-2-43]
- A (barnyard grass) weedkilling efficacy grade (barnyard grass [1]): 5 (weed kill ratio 90% or more, (practically complete withering))
- B (bulrush) weedkilling efficacy grade (bulrush [2]): 5 (weed kill ratio 90% or more, (practically complete withering))
- C (oval-leafed pondweed) weedkilling efficacy grade (oval-leafed pondweed [3]): 5 (weed kill ratio 90% or more, (practically complete withering))
- a (transplanted rice) effect on crop grade (transplanted rice): 3 (weed kill ratio 40% or more, less than 70%)
- A (barnyard grass) weedkilling efficacy grade (barnyard grass [4]): 5 (weed kill ratio 90% or more, (practically complete withering))
- B (bulrush) weedkilling efficacy grade (bulrush [5]): 5 (weed kill ratio 90% or more, (practically complete withering))
- C (oval-leafed pondweed) weedkilling efficacy grade (oval-leafed pondweed [6]): 5 (weed kill ratio 90% or more, (practically complete withering))
- D (crabgrass) weedkilling efficacy grade (crabgrass [7]): 5 (weed kill ratio 90% or more, (practically complete withering))
- E (green foxtail) weedkilling efficacy grade (green foxtail [8]): 4 (weed kill ratio 70% or more, less than 90%)
- F (barnyard grass) weedkilling efficacy grade (barnyard grass [9]): 5 (weed kill ratio 90% or more, (practically complete withering))
- G (wild oat) weedkilling efficacy grade (wild oat [10]): 5 (weed kill ratio 90% or more, (practically complete withering))
- H (black-grass) weedkilling efficacy grade (black-grass [11]): 5 (weed kill ratio 90% or more, (practically complete withering))
- I (Italian ryegrass) weedkilling efficacy grade (Italian ryegrass [12]): 5 (weed kill ratio 90% or more, (practically complete withering))
- J (common wind-grass) weedkilling efficacy grade (common wind-grass [13]): 5 (weed kill ratio 90% or more, (practically complete withering))
- K (Indian mallow) weedkilling efficacy grade (Indian mallow [14]): 0 (weed kill ratio 5% or less (practically no effect))
- L (redroot pigweed) weedkilling efficacy grade (redroot pigweed [15]): 3 (weed kill ratio 40% or more, less than 70%)
- M (fig-leafed goosefoot) weedkilling efficacy grade (fig-leafed goosefoot [16]): 3 (weed kill ratio 40% or more, less than 70%)
- N (chickweed) weedkilling efficacy grade (chickweed [17]): 4 (weed kill ratio 70% or more, less than 90%)
- O (catchweed) weedkilling efficacy grade (catchweed [18]): 4 (weed kill ratio 70% or more, less than 90%)
- P (birds-eye speedwell) weedkilling efficacy grade (birds-eye speedwell): 5 (weed kill ratio 90% or more, (practically complete withering))
- b (directly sown rice) effect on crop grade (directly sown rice [19]): 3 (weed kill ratio 40% or more, less than 70%)
- c (corn) effect on crop grade (corn [20]): 0 (weed kill ratio 5% or less (practically no effect))
- d (soybean) effect on crop grade (soybean [21]): 2 (weed kill ratio 20% or more, less than 40%)
- e (wheat) effect on crop grade (wheat [22]): 1 (weed kill ratio 5% or more, less than 20%)
- f (beet) effect on crop grade (beet [23]): 4 (weed kill ratio 70% or more, less than 90%)
- g (rapeseed) effect on crop grade (rapeseed [24]): 4 (weed kill ratio 70% or more, less than 90%)
- D (crabgrass) weedkilling efficacy grade (crabgrass [25]): 5 (weed kill ratio 90% or more, (practically complete withering))
- E (green foxtail) weedkilling efficacy grade (green foxtail [26]): 5 (weed kill ratio 90% or more, (practically complete withering))
- F (barnyard grass) weedkilling efficacy grade (barnyard grass [27]): 5 (weed kill ratio 90% or more, (practically complete withering))
- G (wild oat) weedkilling efficacy grade (wild oat [28]): 3 (weed kill ratio 40% or more, less than 70%)
- H (black-grass) weedkilling efficacy grade (black-grass [29]): 5 (weed kill ratio 90% or more, (practically complete withering))
- I (Italian ryegrass) weedkilling efficacy grade (Italian ryegrass [30]): 5 (weed kill ratio 90% or more, (practically complete withering))
- J (common wind-grass) weedkilling efficacy grade (common wind-grass [31]): 5 (weed kill ratio 90% or more, (practically complete withering))
- K (Indian mallow) weedkilling efficacy grade (Indian mallow [32]): 3 (weed kill ratio 40% or more, less than 70%)
- L (redroot pigweed) weedkilling efficacy grade (redroot pigweed [33]): 3 (weed kill ratio 40% or more, less than 70%)
- M (fig-leafed goosefoot) weedkilling efficacy grade (fig-leafed goosefoot [34]): 4 (weed kill ratio 70% or more, less than 90%)
- N (chickweed) weedkilling efficacy grade (chickweed [35]): 3 (weed kill ratio 40% or more, less than 70%)
- O (catchweed) weedkilling efficacy grade (catchweed [36]): 1 (weed kill ratio 5% or more, less than 20%)
- b (directly sown rice) effect on crop grade (directly sown rice [37]): 5 (weed kill ratio 90% or more, (practically complete withering))
- c (corn) effect on crop grade (corn [38]): 3 (weed kill ratio 40% or more, less than 70%)
- d (soybean) effect on crop grade (soybean [39]): 4 (weed kill ratio 70% or more, less than 90%)
- e (wheat) effect on crop grade (wheat [40]): 0 (weed kill ratio 5% or less (practically no effect))
- f (beet) effect on crop grade (beet [41]): 3 (weed kill ratio 40% or more, less than 70%)
- g (rapeseed) effect on crop grade (rapeseed [42]): 4 (weed kill ratio 70% or more, less than 90%)
